Test results: ChEMBL document CHEMBL1201862, “PubChem BioAssay data set” (2004)
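Where inhibition never reached the appropriate level, the endpoint shown equals the highest concentration tested. Otherwise, values were interpolated linearly from a five-concentration, 48-hour dose response in 96-well plates. GI50 marks 50% less growth.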 Calls of active or inactive are those of the source. No stated cut-off is given here; in the data, active = GI50 up to about 1.1 µM and inactive = higher.

Key:
Assay in all cases: growth of human tumour cells (NCI), 48 h
[1] = tested on: IGROV-1
[2] = tested on: U-251
[3] = tested on: RXF 393
[4] = tested on: MCF7
[5] = tested on: T47D
[6] = tested on: NCI-H522
[7] = tested on: MDA-MB-435
[8] = tested on: LOX IMVI
[9] = tested on: HCC 2998
[10] = tested on: OVCAR-8
[11] = tested on: ACHN
[12] = tested on: HOP-92
[13] = tested on: HT-29
[14] = tested on: OVCAR-4
[15] = tested on: SK-OV-3
[16] = tested on: OVCAR-3
[17] = tested on: SK-MEL-28
[18] = tested on: SF-295
[19] = tested on: HL-60
[20] = tested on: RPMI-8226
[21] = tested on: DU-145
[22] = tested on: SW-620
[23] = tested on: EKVX
[24] = tested on: COLO 205
[25] = tested on: Hs-578T
[26] = tested on: SNB-75
[27] = tested on: M14
[28] = tested on: MOLT-4
[29] = tested on: SNB-19
[30] = tested on: Malme-3M
[31] = tested on: SK-MEL-5
[32] = tested on: 786-0
[33] = tested on: A498
[34] = tested on: NCI-H23
[35] = tested on: HCT-15
[36] = tested on: SR
[37] = tested on: A549
[38] = tested on: CCRF-CEM
[39] = tested on: UACC-62
[40] = tested on: NCI-H226
[41] = tested on: SF-539
[42] = tested on: UACC-257
[43] = tested on: UO-31
[44] = tested on: NCI-H460
[45] = tested on: KM12
[46] = tested on: CAKI-1
[47] = tested on: SF-268
[48] = tested on: SN12C
[49] = tested on: TK-10
[50] = tested on: MDA-MB-231
[51] = tested on: SK-MEL-2
[52] = tested on: HCT-116
[53] = tested on: NCI/ADR-RES
[54] = tested on: HOP-62
[55] = tested on: OVCAR-5
[56] = tested on: K562
[57] = tested on: MDA-N
[58] = tested on: PC-3

Measured: GI50

COc1cc2c(cc1OCCCOc1cc(-c3ccc(F)cc3)nc(C)n1)N=C[C@@H]1CCCN1C2=O
inactive: [1] 19.2 µM | [2] 14.8 µM | [3] 20.2 µM | [4] 29.4 µM | [5] 25.8 µM | [6] 14.6 µM | [7] 15.2 µM | [8] 13.6 µM | [9] > 10 µM | [10] 24.5 µM | [11] 16.1 µM | [12] 27.4 µM | [13] 23.1 µM | [14] 33.5 µM | [15] 25.6 µM | [16] 15.2 µM | [17] 20.7 µM | [18] 16.4 µM | [19] 24.9 µM | [20] 26.1 µM | [21] 9.06 µM | [22] 22.9 µM | [23] 18.9 µM | [24] 29.1 µM | [25] 24.7 µM | [26] 19.1 µM | [27] 15.5 µM | [28] 14.3 µM | [29] 20.1 µM | [30] 12.8 µM | [31] 15.9 µM | [32] 16.7 µM | [33] 12.7 µM | [34] 15.1 µM | [36] 10.4 µM | [37] 18.2 µM | [38] 15.8 µM | [39] 14.5 µM | [40] 15.2 µM | [41] 16.6 µM | [42] 17.3 µM | [43] 17.7 µM | [44] > 100 µM | [45] 19.3 µM | [46] 17.5 µM | [47] 17.2 µM | [48] 16.5 µM | [49] 18.1 µM | [50] 13.8 µM | [51] 17.2 µM | [52] 16.9 µM
12.6 µM: [35]

CCc1nc(N)nc(N)c1-c1ccc(Cl)c(N=[N+]=[N-])c1
active: [56] 0.37 µM | [52] 0.6 µM
inactive: [53] 5.5 µM | [2] 4.69 µM | [4] 5.48 µM | [5] 28.5 µM | [6] 9.51 µM | [7] 2.84 µM | [8] 2.21 µM | [9] 9.62 µM | [54] 16.7 µM | [12] 20.5 µM | [14] 19.2 µM | [15] 31 µM | [16] 15.6 µM | [17] 13.5 µM | [18] 2.09 µM | [55] 12.1 µM | [20] 8.87 µM | [21] 11.2 µM | [22] 1.6 µM | [23] 2.75 µM | [24] 7.74 µM | [25] 16.7 µM | [26] 22.1 µM | [31] 2.61 µM | [32] 3.44 µM | [33] 8.39 µM | [34] 4.03 µM | [40] 22.7 µM | [41] 4.05 µM | [45] 7.36 µM | [47] 9.35 µM | [48] 12.6 µM | [50] 15.6 µM | [51] 14.6 µM

CC(=O)O[C@H]1C(=O)[C@@]2(C)C(C(OC(=O)c3ccccc3)[C@]3(O)CC(OC(=O)[C@H](OC(=O)CCC(=O)O)C(NC(=O)c4ccccc4)c4ccccc4)C(C)=C1C3(C)C)C1(OC(C)=O)COC1C[C@@H]2OC(=O)CCC(=O)O (some centres undefined)
inactive: [14] > 50.6 µM | [43] 79.1 µM

N#CCCC1(CCC#N)CCCCCCCCC(CCC#N)(CCC#N)C(=O)C1=O
inactive: [53] > 100 µM | [2] > 100 µM | [4] > 100 µM | [5] 36.6 µM | [6] 5.81 µM | [7] > 100 µM | [8] > 100 µM | [9] > 100 µM | [54] > 100 µM | [10] > 100 µM | [11] > 100 µM | [57] > 100 µM | [12] > 100 µM | [13] > 100 µM | [14] > 100 µM | [15] > 100 µM | [16] > 100 µM | [17] > 100 µM | [18] > 100 µM | [55] > 100 µM | [58] > 100 µM | [19] > 100 µM | [21] > 100 µM | [22] > 100 µM | [23] > 100 µM | [24] > 100 µM | [25] 91 µM | [56] 83.9 µM | [26] 63.8 µM | [27] > 100 µM | [29] > 100 µM | [30] > 100 µM | [32] > 100 µM | [34] > 100 µM | [36] > 100 µM | [37] > 100 µM | [39] > 100 µM | [40] > 100 µM | [41] 44.6 µM | [42] 55.6 µM | [44] > 100 µM | [45] > 100 µM | [46] > 100 µM | [47] > 100 µM | [48] > 100 µM | [49] > 100 µM | [51] > 100 µM | [52] > 100 µM
> 100 µM: [35]
